In US5242945A, “Tetronic and thiotetronic acid derivatives as phospholipase A2 inhibitors” (American Home Products Corporation, priority 1991, dated 1993):
pIC50: −log10 of the molar value.

Columns and labels:
[1] = molecular target: T1, human synovial fluid PLA2 (Homo sapiens, UniProt P14555); experiment: in vitro isolated phospholipase A2 assay, human synovial fluid PLA2; type: biochemical; settings: for inhibition at 10 µM / inhibition at 50 µM: read-out: % Inhibition HSF (human synovial fluid)
T1 construct: Purified human synovial fluid; from tissue; host or cells: human synovial fluid
T1 sequence (P14555 21-144): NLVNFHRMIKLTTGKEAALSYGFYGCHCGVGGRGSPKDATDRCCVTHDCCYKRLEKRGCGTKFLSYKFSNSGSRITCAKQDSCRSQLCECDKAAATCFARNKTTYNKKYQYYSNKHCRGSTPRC
Experimental: (§1) The compounds of the invention are tested in an in vitro isolated phospholipase A2 assay to determine the ability of the test compounds to inhibit the release of arachidonic acid from an arachidonic acid-containing substrate by the action of phospholipase A2 enzyme from human and non-human sources.
(§2) Into a 15 mL polypropylene tube are added the following:
(§3) ^3 H-AA E. coli substrate^1
(§4) Tris-HCl (0.5 M) pH 7.5^3
(§5) PLA2 25 Volume yielding 12%
(§6) 100 hydrolysis in 10 min.
(§7) *pre-incubate at room temperature 30 min prior to substrate addition.
(§8) ^6 Two human PLA2 enzymes are used: a) Semipurified human
(§9) platelet acid extract PLA2 (in 10 mM sodium acetate buffer, pH 4.5).
(§10) Remove protein precipitate by centrifugation at about 2200 rpm for 10
(§11) minutes. b) Purified human synovial fluid.
(§12) Incubate the 100 μL reaction mixture for 10 minutes at 37° C. in a shaking water bath. The reaction is terminated by the addition of 2 mL tetrahydrofuran, followed by vortexing. NH2 columns (100 μg/mL--Analytichem International) are conditioned with 0.5 mL tetrahydrofuran followed by 0.5 mL tetrahydrofuran/water (2 mL:0.1 mL, v/v).
(§13) The sample is loaded onto the columns and slowly drawn through them. The hydrolyzed arachidonic acid retained in the columns is eluted therefrom with 1 mL tetrahydrofuran/glacial acetic acid (2%). The arachidonic acid is transferred to scintillation vials and quantitated by β-counting analysis. A "total counts" sample is prepared by pipetting 25 μL ^3 H-arachidonate E. coli directly into a scintillation vial to which is added 1 mL tetrahydrofuran. 10 mL aquasol (scintillation cocktail) is added to all samples.

[2] = molecular target: T2, human platelet PLA2 (Homo sapiens, UniProt P14555); experiment: in vitro isolated phospholipase A2 assay, human platelet PLA2; type: biochemical; settings: for inhibition at 10 µM / inhibition at 50 µM: read-out: % Inhibition HP (human platelet)
T2 construct: platelet acid extract PLA2; from tissue; host or cells: human platelets, semipurified acid extract
T2 sequence (P14555 21-144): T1 sequence (P14555 21-144)
Experimental: as §1, §2, §3, §4, §5, §6, §7, §8, §9, §10, §11, §12, §13

[3] = at 10 μM, + values given without explanation

| Compound | inhibition at 10 µM [1, 3] | inhibition at 10 µM [2, 3] | further results |
| --- | --- | --- | --- |
| CCCCCCCC/C=C\CCCCCCCC(=O)OCC(CCC(=O)O)OC(=O)CCCCCCC/C=C\CCCCCCCC (stereo not drawn) [Example 24A, 4,5-Bis[((Z)-1-oxo-9-octadecenyl)oxy]pentanoic acid] | 80.7% | 45.4% |  |
| COc1ccc(/C=C/C(=O)C2=C(O)COC2=O)cc1OC [Example 16, (E)-3-(3-(3,4-Dimethoxyphenyl)-1-oxo-2-propenyl)-4-hydroxy-2 (5H)-furanone] | 5.5% | 2.1% |  |
| O=C(CCc1ccccc1)C1=C(O)COC1=O [Example 2, 4-Hydroxy-3-(1-oxo-3-phenylpropyl)-2(5H)-furanone] |  |  | inhibition at 50 µM [1]: 27%; inhibition at 50 µM [2]: 8% |
| CC1=C(CC(=O)O)c2cc(F)ccc2/C1=C\c1ccc([S+](C)[O-])cc1 (stereo not drawn) [sulindac, reference compound] |  |  | pIC50 [1]: 4.52 |
| COc1ccc(OC)c(/C=C/C(=O)C2=C(O)COC2=O)c1 [Example 13, (E)-3-(3-(2,5-Dimethoxyphenyl)-1-oxo-2-propenyl)-4-hydroxy-2 (5H)-furanone] | 34% | 11% |  |
| O=C(/C=C/c1cccc(C(F)(F)F)c1)C1=C(O)COC1=O [Example 10, (E)-4-Hydroxy-3-(1-oxo-3-(3-(trifluoromethyl)phenyl)-2-propenyl)-2 (5H)-furanone] | 34% | 9.6% |  |
| CCCCCCCC/C=C\CCCCCCCC(=O)OCC(CCC(=O)C1=C(O)COC1=O)OC(=O)CCCCCCC/C=C\CCCCCCCC (stereo not drawn) [Example 24, (Z)-9-Octadecanoic acid 5-(2,5-dihydro-4-hydroxy-3-furanyl)-5-oxo-1,2-pentanediyl ester] | 79.5% | 56.6% |  |
| CCCCCCCCC#CCCCCCCCC(=O)C1=C(O)COC1=O [Example 27, 4-Hydroxy-3-(1-oxo-9-octadecynyl)-2(5H)-furanone] | 31.2% | 34.9% |  |
| O=C(COCc1ccccc1)C1=C(O)COC1=O [Example 3, 4-Hydroxy-3-[(phenylmethoxy)acetyl]-2(5H)-furanone] |  |  | inhibition at 50 µM [1]: 25%; inhibition at 50 µM [2]: 3.5% |
| O=C(CCCc1c[nH]c2ccccc12)C1=C(O)COC1=O [Example 5, 4-Hydroxy-3-[4-(1H-indol-3-yl)-1-oxobutyl]-2(5H)-furanone] |  |  | inhibition at 50 µM [1]: 11%; inhibition at 50 µM [2]: 0% |
| O=C(CCc1c[nH]c2ccccc12)C1=C(O)COC1=O [Example 4, 4-Hydroxy-3-[3-(1H-indol-3-yl)-1-oxopropyl]-2(5H)-furanone] |  |  | inhibition at 50 µM [1]: 25%; inhibition at 50 µM [2]: 10% |
| 4-Hydroxy-3-(1-oxoeicosanoyl)-2(5H)-furanone [Example 11] |  |  | % Inhibition HSF (human synovial fluid) [1, 3]: 32%; % Inhibition HP (human platelet) [2, 3]: 6.7% |
| O=C(CCCCCOc1ccc(Cl)cc1)C1=C(O)COC1=O [Example 21, 4-Hydroxy-3-[6-(4-chlorophenoxy)-1-oxohexyl]-2(5H)-furanone] | 24% | 2.5% |  |
| CCCCCCCC/C=C\CCCCCCCC(=O)C1=C(O)C(C)(C)OC1=O [Example 17, (Z)-4-Hydroxy-5,5-dimethyl-3-(1-oxo-9-octadecenyl)-2(5H)-furanone] | 9% | 16% |  |

More lines, main results first:

| inhibition at 10 µM [1, 3] | inhibition at 10 µM [2, 3] | Compound | further results |
| --- | --- | --- | --- |
| 10.3% | 25.4% | CCCCCCCC/C=C/CCCCCCCC(=O)C1=C(O)COC1=O [Example 36, 4-Hydroxy-3-((E)-1-oxo-9-octadecenyl)-2(5H)-furanone] |  |
| 10% | 37.1% | CCCCCCOc1ccc(OCCCCCC(=O)C2=C(O)COC2=O)cc1 [Example 33, 4-Hydroxy-3-[6-[4-(hexyloxy)phenoxy]-1-oxohexyl]-2(5H)-furanone] |  |
| 43.2% | 47.7% | CCCCCCCCCCCCNC(=O)OCC(CCC(=O)O)OC(=O)NCCCCCCCCCCCC (stereo not drawn) [Example 31A, 4,5-Bis[[(Dodecylamino)carbonyl]oxy]pentanoic acid] |  |
| 20.3% | 24.4% | CC(C)(C)CC(C)(C)c1ccc(OCCCCCC(=O)C2=C(O)COC2=O)cc1 [Example 39] |  |
| 34.5% | 33.5% | CCCCCCCCCCCCNC(=O)OCC(CCC(=O)C1=C(O)COC1=O)OC(=O)NCCCCCCCCCCCC (stereo not drawn) [Example 31, Dodecylcarbamic acid 5-(2,5-dihydro-4-hydroxy-2-oxo-3-furanyl)-5-oxo-1,2-pentanediyl ester] |  |
| 18.6% | 8.4% | CCCCCCCC[C@@H]1C[C@@H]1CCCCCCCC(=O)C1=C(O)CSC1=O (relative stereo) [Example 52, 4-Hydroxy-3-[(Z)-8-(2-octylcyclopropyl)-1-oxooctyl]-2(5H)-thiophenone] |  |
| 12.6% | 37.4% | CCCCCCCCCCCCCCCCCC(=O)C1=C(O)COC1=O [Example 28, 4-Hydroxy-3-(1-oxooctadecyl)-2(5H)-furanone] |  |
| 33.6% | 20.6% | O=C(CCCCCCCCOc1ccc(Cl)cc1)C1=C(O)COC1=O [Example 29, 3-[9-(4-Chlorophenoxy)-1-oxononyl]-4-hydroxy-2(5H)-furanone] |  |
| 74.2% | 87.7% | CCCCCCCC/C=C\CCCCCCCCNC(=O)OC(CCC(=O)O)COC/C=C(\C)CCC=C(C)C (stereo not drawn) [Example 40A, 5-[((E)-3,7-Dimethyl-2,6-octadienyl)oxy]-4-[[((Z)-9-octadecenylamino)carbonyl]oxy]pentanoic acid] |  |
| 0.1% | 1.7% | CCCCC[C@@H]1C[C@@H]1CC(=O)C1=C(O)COC1=O (relative stereo) [Example 53, 4-Hydroxy-3-[(Z)-1-oxo-2-(2-pentylcyclopropy)ethyl]-2(5H)-furanone] |  |
| 15.1% | 31.6% | O=C(CCCCCOc1ccc(OCc2ccc(Cl)cc2)cc1)C1=C(O)COC1=O [Example 32, 4-Hydroxy-3-[6-[4-[(4-chlorophenyl)methoxyphenoxy]]1-oxohexyl]-2(5H)-furanone] |  |
| 35.7% | 22.5% | CCCCCCCc1ccc(OCCCCCC(=O)C2=C(O)COC2=O)cc1 [Example 37, 3-[6-(4-Heptylphenoxy)-1-oxohexyl]-4-hydroxy-2(5H)-furanone] |  |
